Reference: US20240116985A1, “STAPLED PEPTIDES AND METHODS THEREOF” (priority 2020, published 2024)
Read-outs that look alike come from different tables or passages of the source.

Columns and labels:
[1] = target: T1, full-length beta-Catenin (Uniprot ID P35222) (Homo sapiens, UniProt P35222); test: Fluorescence polarization IC50 (beta-catenin / 5FAM-TCF4 10-53 competition); format: binding; conditions: fluorescence polarization
T1 construct: 10 nM full-length beta-Catenin (Uniprot ID P35222)
T1 sequence (P35222 1-781): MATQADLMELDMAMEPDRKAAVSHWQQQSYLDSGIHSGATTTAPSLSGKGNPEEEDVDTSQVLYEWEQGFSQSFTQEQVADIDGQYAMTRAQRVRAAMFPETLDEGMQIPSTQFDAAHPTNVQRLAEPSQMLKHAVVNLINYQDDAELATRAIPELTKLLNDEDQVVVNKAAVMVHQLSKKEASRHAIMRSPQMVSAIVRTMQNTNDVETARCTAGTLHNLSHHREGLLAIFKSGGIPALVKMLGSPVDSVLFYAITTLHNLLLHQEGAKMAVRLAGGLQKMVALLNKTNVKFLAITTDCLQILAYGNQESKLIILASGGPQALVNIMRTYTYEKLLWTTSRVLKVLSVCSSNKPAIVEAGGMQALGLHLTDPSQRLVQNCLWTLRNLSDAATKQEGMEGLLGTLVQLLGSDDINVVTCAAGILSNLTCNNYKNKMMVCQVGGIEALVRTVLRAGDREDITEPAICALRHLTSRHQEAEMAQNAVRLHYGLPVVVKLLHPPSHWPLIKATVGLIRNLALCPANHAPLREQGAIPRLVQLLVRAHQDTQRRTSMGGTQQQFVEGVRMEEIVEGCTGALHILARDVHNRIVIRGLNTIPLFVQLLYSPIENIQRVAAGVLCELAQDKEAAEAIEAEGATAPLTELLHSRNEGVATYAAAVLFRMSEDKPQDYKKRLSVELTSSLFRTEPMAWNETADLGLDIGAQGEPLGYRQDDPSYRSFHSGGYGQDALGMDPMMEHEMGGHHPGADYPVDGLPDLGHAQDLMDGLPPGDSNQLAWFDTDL

[2] = target: T2, beta-catenin/TCF4 engagement (Homo sapiens, UniProt P35222); test: Nano-BRET target engagement assay (B-cat-Halo & TCF4-Luc in HEK293 cells); format: cell-based; conditions: absolute IC50
T2 construct: expressed in transfected cells; host or cells: HEK293
T2 sequence (P35222 1-781): T1 sequence (P35222 1-781)

Structure (SMILES) | IC50 ([1]; read-out: beta-Catenin FP IC50) [nM] | IC50 ([2]; read-out: NanoBRET Abs IC50) [µM] | IC50 ([1]; beta-Catenin FP IC50 (nM)) [nM] | IC50 ([2]; NanoBRET Abs IC50 (uM)) [µM]
CNC(=O)C[C@@H]1NC(=O)[C@H](Cc2ccccc2)NC(=O)[C@H](C)NC(=O)C(C)(C)NC(=O)[C@H]([C@@H](C)O)NC(=O)[C@H](CC(N)=O)NC(=O)C2(CCCC=CCCCOC(=O)N3CC[C@@](C(=O)N[C@@H](Cc4ccsc4)C(=O)N[C@@H](Cc4csc5ccccc45)C(=O)N[C@@H](CC(N)=O)C(N)=O)(C3)NC1=O)CCCC=CC[C@]1(CCCN1C(C)=O)C(=O)N[C@@H](CC(=O)O)C(=O)N[C@@H](CC(C)(C)C)C(=O)N2 (stereo partly drawn) [I-2497, Ac-PL3-Asp-Npg-B5-Asn-Thr-Aib-Ala-Phe-MeAsn-PyrS2-3Thi-BztA-Asn-NH2] | 105 | > 20 |  | 
CC(=O)N1CCC[C@]12CC=CCCCC1(CCCC=CCCCOC(=O)N3CC[C@@](C(=O)N[C@@H](Cc4ccccc4)C(=O)N[C@@H](Cc4csc5ccccc45)C(=O)N[C@@H](CC(=O)N4CCOCC4)C(N)=O)(C3)NC(=O)[C@H](CC(C)C)NC(=O)[C@H](Cc3ccccc3)NC(=O)[C@H](C)NC(=O)[C@H](CCC(=O)N(C)C)NC(=O)[C@H](CCC(N)=O)NC(=O)[C@H](CC(=O)O)NC1=O)NC(=O)[C@H](CC1CCCCC1)NC(=O)[C@H](CC(N)=O)NC2=O (stereo partly drawn) [I-2501, Ac-PL3-Asn-Cha-B5-Asp-Gln-Me2Gln-Ala-Phe-Leu-PyrS2-Phe-BztA-MorphAsn-NH2] | 154 | > 20 |  | 
CNC(=O)CC[C@@H]1NC(=O)[C@H](CCC(N)=O)NC(=O)[C@H](CC(=O)O)NC(=O)C2(CCCC=CCCCOC(=O)N3CC[C@@](C(=O)N[C@@H](Cc4ccccc4)C(=O)N[C@@H](Cc4csc5ccccc45)C(=O)N[C@@H](CC(=O)N4CCOCC4)C(N)=O)(C3)NC(=O)[C@H](CC(C)C)NC(=O)[C@H](Cc3ccccc3)NC(=O)[C@H](C)NC1=O)CCCC=CC[C@]1(CCCN1C(C)=O)C(=O)N[C@@H](CC(N)=O)C(=O)N[C@@H](CC1CCCCC1)C(=O)N2 (stereo partly drawn) [I-2502, Ac-PL3-Asn-Cha-B5-Asp-Gln-MeGln-Ala-Phe-Leu-PyrS2-Phe-BztA-MorphAsn-NH2] | 214 | > 20 |  | 
CC(=O)N1CCC[C@]12CC=CCCCC1(CCCC=CCCCOC(=O)N3CC[C@@](C(=O)N[C@@H](Cc4ccccc4)C(=O)N[C@@H](Cc4csc5ccccc45)C(=O)N[C@@H](CC(=O)N4CCOCC4)C(N)=O)(C3)NC(=O)[C@H](CC(C)C)NC(=O)[C@H](Cc3ccccc3)NC(=O)[C@H](C)NC(=O)[C@H](CCC(N)=O)NC(=O)[C@H](CCC(N)=O)NC(=O)[C@H](CC(=O)O)NC1=O)NC(=O)[C@H](CC1CCCCC1)NC(=O)[C@H](CC(N)=O)NC2=O (stereo partly drawn) [I-2504, Ac-PL3-Asn-Cha-B5-Asp-Gln-Gln-Ala-Phe-Leu-PyrS2-Phe-BztA-MorphAsn-NH2] | 210 | > 20 |  | 
CC(=O)N1CCC[C@]12CC=CCCCCC1(CCCCC=CCCCOC(=O)N3CC[C@@](C(=O)N[C@@H](Cc4ccccc4C(F)(F)F)C(=O)N[C@@H](Cc4csc5ccccc45)C(=O)N[C@@H](CCC(N)=O)C(N)=O)(C3)NC(=O)[C@H](CC(C)C)NC(=O)[C@H](Cc3ccccc3)NC(=O)[C@H](C)NC(=O)[C@H](C)NC(=O)[C@H](Cc3cccc(C(=O)O)c3)NC(=O)[C@H](CC(=O)O)NC1=O)NC(=O)[C@H](CC(C)(C)C)NC(=O)[C@H](CC(=O)O)NC2=O (stereo partly drawn) [I-2513, Ac-PL3-Asp-Npg-B6-Asp-3COOHF-Ala-Ala-Phe-Leu-PyrS2-2F3MeF-BztA-Gln-NH2] | 66 | > 20 |  | 
CC(=O)N1CCC[C@]12CC=CCCCCC1(CCCCC=CCCCOC(=O)N3CC[C@@](C(=O)N[C@@H](Cc4ccccc4C(F)(F)F)C(=O)N[C@@H](Cc4csc5ccccc45)C(=O)N[C@@H](C)C(N)=O)(C3)NC(=O)[C@H](CC(C)C)NC(=O)[C@H](Cc3ccccc3)NC(=O)[C@H](C)NC(=O)[C@H](CCC(N)=O)NC(=O)[C@H](Cc3cccc(C(=O)O)c3)NC(=O)[C@H](CC(=O)O)NC1=O)NC(=O)[C@H](CC(C)(C)C)NC(=O)[C@H](CC(=O)O)NC2=O (stereo partly drawn) [I-2515, Ac-PL3-Asp-Npg-B6-Asp-3COOHF-Gln-Ala-Phe-Leu-PyrS2-2F3MeF-BztA-Ala-NH2] | 1610 | > 20 |  | 
CC(=O)N1CCC[C@]12CC=CCCCCC1(CCCCC=CCOC(=O)N3CC[C@@](C(=O)N[C@@H](Cc4ccccc4C(F)(F)F)C(=O)N[C@@H](Cc4csc5ccccc45)C(=O)N[C@@H](CCC(N)=O)C(N)=O)(C3)NC(=O)[C@H](CC(C)C)NC(=O)[C@H](Cc3ccccc3)NC(=O)[C@H](C)NC(=O)[C@H](C)NC(=O)[C@H](Cc3cccc(C(=O)O)c3)NC(=O)[C@H](CC(=O)O)NC1=O)NC(=O)[C@H](CC(C)(C)C)NC(=O)[C@H](CC(=O)O)NC2=O (stereo partly drawn) [I-2518, Ac-PL3-Asp-Npg-B6-Asp-3COOHF-Ala-Ala-Phe-Leu-PyrS-2F3MeF-BztA-Gln-NH2] | 212 | > 20 |  | 
CC(=O)NCCCC[C@@H]1NC(=O)[C@H](CCC(N)=O)NC(=O)[C@H](CC(=O)O)NC(=O)C2(CCCC=CCCCOC(=O)N3CC[C@@](C(=O)N[C@@H](Cc4ccccc4)C(=O)N[C@@H](Cc4csc5ccccc45)C(=O)N[C@@H](CC(=O)N4CCOCC4)C(N)=O)(C3)NC(=O)[C@H](CC(C)C)NC(=O)[C@H](Cc3ccccc3)NC(=O)[C@H](C)NC1=O)CCCC=CC[C@]1(CCCN1C(C)=O)C(=O)N[C@@H](CC(N)=O)C(=O)N[C@@H](CC1CCCCC1)C(=O)N2 (stereo partly drawn) [I-2522, Ac-PL3-Asn-Cha-B5-Asp-Gln-[Ac]Lys-Ala-Phe-Leu-PyrS2-Phe-BztA-MorphAsn-NH2] | 219 | > 20 |  | 
CC(=O)N1CCC[C@]12CC=CCCCC1(CCCC=CCCCOC(=O)N3CC[C@@](C(=O)N[C@@H](Cc4ccccc4)C(=O)N[C@@H](Cc4csc5ccccc45)C(=O)N[C@@H](CC(=O)N4CCOCC4)C(N)=O)(C3)NC(=O)[C@H](CC(C)C)NC(=O)[C@H](Cc3ccccc3)NC(=O)[C@H](C)NC(=O)[C@H](CCCCNC(=O)c3ccccc3)NC(=O)[C@H](CCC(N)=O)NC(=O)[C@H](CC(=O)O)NC1=O)NC(=O)[C@H](CC1CCCCC1)NC(=O)[C@H](CC(N)=O)NC2=O (stereo partly drawn) [I-2523, Ac-PL3-Asn-Cha-B5-Asp-Gln-[Phc]Lys-Ala-Phe-Leu-PyrS2-Phe-BztA-MorphAsn-NH2] |  |  | 1730 | > 20

More lines, in order of falling IC50 ([1]; read-out: beta-Catenin FP IC50), values ahead:

IC50 ([1]; read-out: beta-Catenin FP IC50) [nM] | IC50 ([2]; read-out: NanoBRET Abs IC50) [µM] | Structure (SMILES) | IC50 ([1]; beta-Catenin FP IC50 (nM)) [nM] | IC50 ([2]; NanoBRET Abs IC50 (uM)) [µM]
152 | 27.3 | CC(=O)N1CCC[C@]12CC=CCCCCC1(CCCCC=CCCOC(=O)N3CC[C@@](C(=O)N[C@@H](Cc4ccccc4C(F)(F)F)C(=O)N[C@@H](Cc4csc5ccccc45)C(=O)N[C@@H](CCC(N)=O)C(N)=O)(C3)NC(=O)[C@H](CC(C)C)NC(=O)[C@H](Cc3ccccc3)NC(=O)[C@H](C)NC(=O)[C@H](C)NC(=O)[C@H](Cc3cccc(C(=O)O)c3)NC(=O)[C@H](CC(=O)O)NC1=O)NC(=O)[C@H](CC(C)(C)C)NC(=O)[C@H](CC(=O)O)NC2=O (stereo partly drawn) [I-2508, Ac-PL3-Asp-Npg-B6-Asp-3COOHF-Ala-Ala-Phe-Leu-PyrS1-2F3MeF-BztA-Gln-NH2] |  | 
106 | > 20 | CC(=O)N1CCC[C@]12CC=CCCCC1(CCCC=CCCCOC(=O)N3CC[C@@](C(=O)N[C@@H](Cc4ccsc4)C(=O)N[C@@H](Cc4csc5ccccc45)C(=O)N[C@@H](CC(N)=O)C(N)=O)(C3)NC(=O)[C@H](CC(=O)N(C)C)NC(=O)[C@H](Cc3ccccc3)NC(=O)[C@H](C)NC(=O)C(C)(C)NC(=O)[C@H]([C@@H](C)O)NC(=O)[C@H](CC(N)=O)NC1=O)NC(=O)[C@H](CC(C)(C)C)NC(=O)[C@H](CC(=O)O)NC2=O (stereo partly drawn) [I-2496, Ac-PL3-Asp-Npg-B5-Asn-Thr-Aib-Ala-Phe-Me2Asn-PyrS2-3Thi-BztA-Asn-NH2] |  | 
61 | 30 | CC(=O)N1CCC[C@]12CC=CCCCCC1(CCCCC=CCCCOC(=O)N3CC[C@@](C(=O)N[C@@H](Cc4ccccc4C(F)(F)F)C(=O)N[C@@H](Cc4csc5ccccc45)C(=O)N[C@@H](C)C(N)=O)(C3)NC(=O)[C@H](CC(C)C)NC(=O)[C@H](Cc3ccccc3)NC(=O)[C@H](C)NC(=O)[C@H](CCC(N)=O)NC(=O)[C@H](Cc3cccc(C(=O)O)c3)NC(=O)[C@H](CC(=O)O)NC1=O)NC(=O)[C@H](CC(C)(C)C)NC(=O)[C@H](CC(=O)O)NC2=O (stereo partly drawn) [I-2517, Ac-PL3-Asp-Npg-B6-Asp-3COOHF-Gln-Ala-Phe-Leu-PyrS2-2F3MeF-BztA-Ala-NH2] |  | 
24 | 7.8 | CC(=O)N1CCC[C@]12CC=CCCCCC1(CCCCC=CCCOC(=O)N3CC[C@@](C(=O)N[C@@H](Cc4ccccc4C(F)(F)F)C(=O)N[C@@H](Cc4csc5ccccc45)C(=O)N[C@@H](C)C(N)=O)(C3)NC(=O)[C@H](CC(C)C)NC(=O)[C@H](Cc3ccccc3)NC(=O)[C@H](C)NC(=O)[C@H](CCC(N)=O)NC(=O)[C@H](Cc3cccc(C(=O)O)c3)NC(=O)[C@H](CC(=O)O)NC1=O)NC(=O)[C@H](CC(C)(C)C)NC(=O)[C@H](CC(=O)O)NC2=O (stereo partly drawn) [I-2510, Ac-PL3-Asp-Npg-B6-Asp-3COOHF-Gln-Ala-Phe-Leu-PyrS1-2F3MeF-BztA-Ala-NH2] |  | 
